Values of other authors, collected in PMC3758109 (ChemistryOpen, 2012).

Settings: humans, intravenous bolus injection

inulin
fraction cleared in fast phase: 76%
fraction cleared in slow phase: 24%
half-life of fast phase: 10 min
half-life of slow phase: 86 min
